Literature values in patent publication US11236044B2, “Selective inhibitors of 12(S)-lipoxygenase (12-LOX) and methods for use of the same” (THE REGENTS OF THE UNIVERSITY OF MICHIGAN, priority 2018, dated 2022).

Legend:
[1] = cited from earlier work
human COX-2 = biological target: T1, human COX-2 (Homo sapiens, UniProt P35354); details: 12-LOX versus human COX-2; cited from earlier work
T1 sequence (P35354 18-604): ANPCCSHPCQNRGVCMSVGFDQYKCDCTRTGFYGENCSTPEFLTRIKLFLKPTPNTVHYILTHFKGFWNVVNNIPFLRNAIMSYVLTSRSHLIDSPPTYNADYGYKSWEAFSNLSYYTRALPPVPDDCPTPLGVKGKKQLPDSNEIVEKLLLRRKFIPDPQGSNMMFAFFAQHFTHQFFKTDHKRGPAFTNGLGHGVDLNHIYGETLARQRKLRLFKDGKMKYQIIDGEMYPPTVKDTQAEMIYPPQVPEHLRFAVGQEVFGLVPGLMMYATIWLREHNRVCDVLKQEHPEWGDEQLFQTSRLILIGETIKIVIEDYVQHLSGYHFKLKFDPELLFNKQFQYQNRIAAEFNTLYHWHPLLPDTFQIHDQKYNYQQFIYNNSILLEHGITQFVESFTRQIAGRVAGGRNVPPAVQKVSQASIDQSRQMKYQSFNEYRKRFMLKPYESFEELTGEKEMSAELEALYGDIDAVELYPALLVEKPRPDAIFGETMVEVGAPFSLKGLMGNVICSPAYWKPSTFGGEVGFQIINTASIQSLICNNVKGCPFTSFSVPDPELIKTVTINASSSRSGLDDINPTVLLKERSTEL

[2] = biological target: T2, epithelial 15-human lipoxygenase type-2 (Homo sapiens, UniProt O15296); details: 12-LOX versus paralog; cited from earlier work
T2 sequence (O15296 1-676): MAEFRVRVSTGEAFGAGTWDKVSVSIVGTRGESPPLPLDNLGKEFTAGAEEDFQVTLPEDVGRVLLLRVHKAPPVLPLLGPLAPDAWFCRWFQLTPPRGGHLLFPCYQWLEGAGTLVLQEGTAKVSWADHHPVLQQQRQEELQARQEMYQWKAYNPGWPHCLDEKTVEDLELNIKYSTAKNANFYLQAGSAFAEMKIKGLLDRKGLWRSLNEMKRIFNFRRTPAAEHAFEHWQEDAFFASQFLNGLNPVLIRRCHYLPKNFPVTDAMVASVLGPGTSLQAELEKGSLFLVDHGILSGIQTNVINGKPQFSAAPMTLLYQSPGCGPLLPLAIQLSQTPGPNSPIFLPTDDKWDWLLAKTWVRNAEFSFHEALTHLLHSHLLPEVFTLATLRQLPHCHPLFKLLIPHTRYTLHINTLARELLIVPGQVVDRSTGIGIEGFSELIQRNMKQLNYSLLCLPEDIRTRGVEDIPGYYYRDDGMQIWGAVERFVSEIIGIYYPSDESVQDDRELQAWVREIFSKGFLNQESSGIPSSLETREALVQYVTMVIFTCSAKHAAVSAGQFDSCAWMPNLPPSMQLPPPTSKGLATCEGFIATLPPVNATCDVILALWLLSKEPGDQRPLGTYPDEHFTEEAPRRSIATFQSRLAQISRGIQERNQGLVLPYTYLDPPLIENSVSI

[3] = cited from earlier work; remark: listed apart in the source
[4] = biological target: T3, bovine cyclooxygenase (“COX”)-1 (Bos taurus, UniProt O62664); details: 12-LOX versus bovine COX-1; cited from earlier work
T3 sequence (O62664 25-600): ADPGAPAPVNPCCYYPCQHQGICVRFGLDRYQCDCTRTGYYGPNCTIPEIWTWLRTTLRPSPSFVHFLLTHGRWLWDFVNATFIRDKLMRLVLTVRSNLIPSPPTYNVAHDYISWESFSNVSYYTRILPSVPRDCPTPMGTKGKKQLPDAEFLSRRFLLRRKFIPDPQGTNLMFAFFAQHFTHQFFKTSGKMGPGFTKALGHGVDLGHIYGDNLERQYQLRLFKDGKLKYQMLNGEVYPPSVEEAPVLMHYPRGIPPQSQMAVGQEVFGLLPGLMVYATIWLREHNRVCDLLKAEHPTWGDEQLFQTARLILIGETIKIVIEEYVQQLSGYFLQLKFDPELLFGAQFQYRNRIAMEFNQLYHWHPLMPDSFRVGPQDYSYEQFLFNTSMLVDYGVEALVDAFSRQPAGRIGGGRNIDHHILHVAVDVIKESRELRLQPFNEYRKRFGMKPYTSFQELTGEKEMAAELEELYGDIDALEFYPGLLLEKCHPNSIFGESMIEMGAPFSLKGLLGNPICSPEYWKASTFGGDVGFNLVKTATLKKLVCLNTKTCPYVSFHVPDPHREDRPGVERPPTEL

[5] = system: thrombus formation and vessel occlusion; details: cited from earlier work
[6] = in vivo; cited from earlier work
5-human lipoxygenase = biological target: T4, 5-human lipoxygenase (Homo sapiens, UniProt P09917); details: 12-LOX versus paralog; cited from earlier work
T4 sequence (P09917 1-674): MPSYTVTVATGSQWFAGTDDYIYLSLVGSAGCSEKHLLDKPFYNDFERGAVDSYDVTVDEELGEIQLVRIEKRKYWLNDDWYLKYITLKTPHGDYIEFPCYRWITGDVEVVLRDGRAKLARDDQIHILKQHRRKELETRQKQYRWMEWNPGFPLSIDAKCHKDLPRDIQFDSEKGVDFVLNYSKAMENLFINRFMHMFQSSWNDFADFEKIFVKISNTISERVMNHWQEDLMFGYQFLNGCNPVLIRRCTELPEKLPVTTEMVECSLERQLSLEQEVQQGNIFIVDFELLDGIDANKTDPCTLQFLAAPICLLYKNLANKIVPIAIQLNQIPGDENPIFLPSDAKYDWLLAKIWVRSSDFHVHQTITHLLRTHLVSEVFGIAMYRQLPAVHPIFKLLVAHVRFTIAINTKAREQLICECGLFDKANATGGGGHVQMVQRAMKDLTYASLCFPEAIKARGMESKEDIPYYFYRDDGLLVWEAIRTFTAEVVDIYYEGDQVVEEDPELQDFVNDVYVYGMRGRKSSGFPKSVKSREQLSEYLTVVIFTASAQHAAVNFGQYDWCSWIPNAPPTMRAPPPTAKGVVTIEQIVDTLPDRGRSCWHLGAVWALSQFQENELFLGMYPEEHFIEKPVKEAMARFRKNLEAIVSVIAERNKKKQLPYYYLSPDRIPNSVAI

[7] = biological target: reticulocyte 15-human lipoxygenase type-1 (Homo sapiens, UniProt P16050); details: 12-LOX versus paralog; cited from earlier work
Sequence of reticulocyte 15-human lipoxygenase type-1 (P16050 whole entry): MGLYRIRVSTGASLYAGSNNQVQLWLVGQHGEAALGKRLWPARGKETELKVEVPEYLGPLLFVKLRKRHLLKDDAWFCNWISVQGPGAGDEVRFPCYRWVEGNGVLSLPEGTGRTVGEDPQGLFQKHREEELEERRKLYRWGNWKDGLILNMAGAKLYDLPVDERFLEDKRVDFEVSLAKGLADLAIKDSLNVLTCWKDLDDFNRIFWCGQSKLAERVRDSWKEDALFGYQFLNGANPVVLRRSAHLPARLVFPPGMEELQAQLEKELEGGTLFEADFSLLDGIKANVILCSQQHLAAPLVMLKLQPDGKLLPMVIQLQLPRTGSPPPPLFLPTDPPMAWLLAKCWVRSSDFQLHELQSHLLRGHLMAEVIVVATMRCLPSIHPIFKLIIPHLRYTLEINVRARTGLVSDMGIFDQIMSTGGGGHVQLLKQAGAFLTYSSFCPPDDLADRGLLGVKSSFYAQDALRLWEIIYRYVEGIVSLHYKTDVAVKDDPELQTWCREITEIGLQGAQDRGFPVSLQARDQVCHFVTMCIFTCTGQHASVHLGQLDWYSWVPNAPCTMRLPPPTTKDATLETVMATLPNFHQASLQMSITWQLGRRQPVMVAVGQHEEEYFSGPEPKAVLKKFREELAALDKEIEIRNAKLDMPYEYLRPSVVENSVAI

SMILES: COc1cccc(CNc2ccc(S(=O)(=O)Nc3nc4ccccc4s3)cc2)c1O [ML355]
- tolerance in preclinical studies [1]: relatively good tolerance
- selectivity versus human COX-2 (human COX-2): > 100 fold
- selectivity versus epithelial 15-human lipoxygenase type-2 [2]: > 50 fold
- solubility [3]: limited solubility
- selectivity versus bovine COX-1 [4]: > 100 fold
- thrombus formation and vessel occlusion in vivo [5]: impair thrombus formulation and vessel occlusion in vivo
- effects on hemostasis ([5]; in vivo): minimal affects on hemostasis
- pharmacokinetics [6]: reasonable pharmacokinetics
- selectivity versus 5-human lipoxygenase (5-human lipoxygenase): > 50 fold
- selectivity versus reticulocyte 15-human lipoxygenase type-1 [7]: > 50 fold
